Among the data in EP0261503B1, “Heterocyclic amido derivatives of substituted benzoic acids and therapeutic compositions which contain them as active principle” (VALEAS S.p.A. INDUSTRIA CHIMICA E FARMACEUTICA, priority 1986, dated 1988) are ED₅₀, Activity and inhibition values, retold here.

For orientation: inhibition means the percentage by which the read-out fell short of the control. A lower inhibition goes with a weak effect.

Assay [1] deals with passive cutaneous anaphylaxis. The assay can be described thus: passive cutaneous anaphylaxis test (PCA) in the rat, oral administration. Conditions: PCA test on the rat, oral administration 30 minutes before antigen challenge; for Activity: relative to Tranilast = 1. Format: in vivo. How it is done: The products of general formula (I) listed in Table 1 were subjected to a first pharmacological screening to evaluate their activity after oral administration in the passive cutaneous anaphylaxis test (PCA) in the rat in accordance with Goose J. and Blair A.M.J.N. (Immunology, 16, 749-760, 1969). Serum, obtained from rats actively sensitized with ovalbumin and suitably diluted, was injected intradermally into the shave back of male Sprague Dawley rats, and after 24 hours these were treated intravenously with a solution of ovalbumin and Evans blue. Thirty minutes after the antigen challenge, the animals were sacrificed and the diameter and intensity of the blue halo which has formed in the intradermal injection site was measured. The compounds according to the invention, and also tranilast (N-3ʹ, 4ʹ-dimethoxycinnamoyl) anthranilic acid) used as reference standard, were dissolved-suspended in suitable solvents (carboxymethylcellulose, gum arabic, DMSO etc.) and administered orally thirty minutes before the antigen challenge. Table 2 lists the ED₅₀ values and the relative confidence limits at p = 0.05.

In assay [2] the test system is passive cutaneous anaphylaxis. Description: passive cutaneous anaphylaxis test (PCA) in the rat, intraperitoneal administration. Conditions: ip, PCA test on the rat, 15 minutes before antigen challenge, versus control group. Format: in vivo. On the procedure: The products of general formula (I) listed in Table 1 were subjected to a first pharmacological screening to evaluate their activity after oral administration in the passive cutaneous anaphylaxis test (PCA) in the rat in accordance with Goose J. and Blair A.M.J.N. (Immunology, 16, 749-760, 1969). Serum, obtained from rats actively sensitized with ovalbumin and suitably diluted, was injected intradermally into the shave back of male Sprague Dawley rats, and after 24 hours these were treated intravenously with a solution of ovalbumin and Evans blue. Thirty minutes after the antigen challenge, the animals were sacrificed and the diameter and intensity of the blue halo which has formed in the intradermal injection site was measured. Some of the compounds according to the invention were subjected to a further passive cutaneous anaphylaxis test evaluation to determine their efficiency after intraperitoneal administration at a dose of 100 mg/kg, fifteen minutes before the challenge. […]

For `CCOC(=O)c1cc(C)sc1NC(=O)c1cccc(OC)c1[N+](=O)[O-]` [Compound 1, 3-thiophene carboxylic acid-2-[(2-nitro-3-methoxybenzoyl)amino]-5-methyl ethyl ester], in assay [1], the ED₅₀ came to 0.21 mmoles/kg/os and the Activity is recorded as 1.5. The compound further had an inhibition at 100 mg/kg in assay [2] of 59.4%.
Turning to `CCOC(=O)c1cc(C)sc1NC(=O)c1cccc(OC)c1N` [Compound 7, 3-THIOPHENE CARBOXYLIC ACID, 2[(2-AMINO-3-METHOXY BENZOYL)AMINO]-5-METHYL-ETHYL ESTER], the Activity in assay [1] is 450.7. Moreover, in assay [2], the inhibition at 100 mg/kg worked out at 31.9%.
In assay [1], `CCOC(=O)c1cc(C)sc1NC(=O)c1cccc(OC)c1NC(C)=O` [Compound 15, 3-THIOPHENE CARBOXYLIC ACID, 2-[(2-ACETYL AMINO-3-METHOXY BENZOYL)AMINO]-5-METHYL, ETHYL ESTER] displayed an ED₅₀ of 0.013 mmoles/kg/os and an Activity of 24.6.
Compound `COc1cccc(C(=O)Nc2sc(C)cc2C(=O)O)c1N` [Compound 16, 3-THIOPHENE CARBOXYLIC ACID, 2-[(2-AMINO-3-METHOXY BENZOYL)AMINO]-5-METHYL] registered an Activity in assay [1] of 41.0.
`CCOC(=O)C(=O)Nc1c(OC)cccc1C(=O)Nc1sc(C)cc1C(=O)OCC` [Compound 18, 3-THIOPHENE CARBOXYLIC ACID, 2-[[2-AMINO(OXOACETIC ACID ETHYL ESTER)-3-METHOXY BENZOYL] AMINO]-5-METHYL, ETHYL ESTER]: the Activity in assay [1] is 114.3.
Take `CCOC(=O)Cc1csc(NC(=O)c2cccc(OC)c2N)n1` [Compound 25, 4-THIAZOLE ACETIC ACID, 2-[(2-AMINO-3-METHOXY BENZOYL)AMINO], ETHYL ESTER]: the Activity in assay [1] is recorded as 64.0. In assay [2], this compound displayed an inhibition at 100 mg/kg of 43.1%.
In assay [1], `CCOC(=O)c1cc(C)sc1-n1c(=O)[nH]c2c(OC)cccc2c1=O` [Compound 32, 8-METHOXY-3-[(3-ETHOXY CARBONYL-5-METHYL)-THIENYL]-2,4 QUINAZOLONE] returned an ED₅₀ of 0.08 mmoles/kg/os and an Activity of 4.0. Also, in assay [2], the inhibition at 100 mg/kg turned out to be 52.7%.
In assay [1], `CCOC(=O)C(O)c1csc(-n2c(=O)[nH]c3c(OC)cccc3c2=O)n1` (stereo not drawn) [Compound 36, 8-METHOXY-3-[[5-(α-HYDROXY ETHYL ACETATE)]-THIAZENYL]-2,4 QUINAZOLONE] returned an ED₅₀ of 0.054 mmoles/kg/os and an Activity of 5.9. The same compound showed an inhibition at 100 mg/kg in assay [2] of 40.7%.
`CCOC(=O)Cc1csc(NC(=O)c2cc(C)ccc2N)n1` [Compound 37] registered an Activity in assay [1] of 213.3. In addition, testing at 100 mg/kg in assay [2] gave an inhibition of 88.4%.
In assay [1], `COc1ccc(C=CC(=O)Nc2ccccc2C(=O)O)cc1OC` [Tranilast, N-(3ʹ,4ʹ-dimethoxycinnamoyl) anthranilic acid, reference compound] registered an ED₅₀ of 0.32 mmoles/kg/os and an Activity of 1.
